Reference: patent US4656166A, “Antibiotic compounds derived from cephalosporins, process for their production and pharmaceutical compositions” (Sanofi, priority 1983, dated 1987)
Values after ≈ are worked out from the molar mass of the structure shown. Where two headings read alike, the source gives them in different places.

Tests used:
Assay type in all cases: cell-based
[1] = tested on: Klebsiella RO 30; test: MIC, in vitro dilution method, Klebsiella RO 30 (Table III); settings: RO30; Klebsiella RO 30; dilution method; read-out: MIC
Method in brief: (§1)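 Dilution-method MIC, in vitro, μg/ml.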

[2] = tested on: Proteus vulgaris GN 76/C.1/3; test: MIC on strain not producing beta-lactamase, Proteus vulgaris GN 76/C.1/3 (Table IV); settings: GN76, not producing beta-lactamases
Procedure: (§2) To evaluate the stability of these products towards beta-lactamases, their MIC was determined on isogenic strains producing and not producing beta-lactamases.
(§3) The results are expressed in μg/ml in Table IV.

[3] = tested on: Citrobacter RL 49; test: MIC, in vitro dilution method, Citrobacter RL 49 (Table III); settings: RL49; Citrobacter RL 49; dilution method; read-out: MIC
Method in brief: as §1

[4] = tested on: Pseudomonas RL 112; test: MIC, in vitro dilution method, Pseudomonas RL 112 (Table III); settings: RL112
Method in brief: as §1

[5] = tested on: Escherichia coli 255/L.7; test: MIC on strain not producing beta-lactamase, Escherichia coli 255/L.7 (Table IV); settings: Escherichia coli 255/L.7 *, not producing beta-lactamases; read-out: MIC
Procedure: as §2, §3

[6] = tested on: Escherichia coli SOL 90; test: MIC, in vitro dilution method, Escherichia coli SOL 90 (Table III); settings: SOL90; Escherichia coli SOL 90; dilution method; read-out: MIC
Method in brief: as §1

[7] = tested on: Serrtia liquefaciens SL 1326 S; test: MIC on strain not producing beta-lactamase, Serratia liquefaciens SL 1326 S (Table IV); settings: SL1326S, not producing beta-lactamases
Procedure: as §2, §3

[8] = tested on: Proteus vulgaris GN 76/C.1; test: MIC on beta-lactamase producing strain Proteus vulgaris GN 76/C.1 (Table IV); settings: GN76
Procedure: as §2, §3

[9] = tested on: Proteus vulgaris RL 99 bis; test: MIC, in vitro dilution method, Proteus vulgaris RL 99 bis (Table III); settings: RL99BIS
Method in brief: as §1

[10] = tested on: Serrtia liquefaciens SL/326 A; test: MIC on beta-lactamase producing strain Serratia liquefaciens SL/326 A (Table IV)
Procedure: as §2, §3

[11] = tested on: Enterobacter RO 154; test: MIC, in vitro dilution method, Enterobacter RO 154 (Table III); settings: RO154; Enterobacter RO 154; dilution method; read-out: MIC
Method in brief: as §1

[12] = tested on: Escherichia coli 255; test: MIC on beta-lactamase producing strain Escherichia coli 255 (Table IV); settings: Escherichia coli 255, producing beta-lactamases; read-out: MIC
Procedure: as §2, §3

[13] = tested on: Serratia RL 72; test: MIC, in vitro dilution method, Serratia RL 72 (Table III); settings: RL72
Method in brief: as §1

[14] = Proteus vulgaris GN 76/C.1, producing beta-lactamases, read-out: MIC
[15] = Proteus vulgaris RL 99 bis, dilution method, read-out: MIC

Compound | MIC [1] | MIC [2] | MIC [3] | MIC [4] | MIC [5] | MIC [6] | MIC [7] | MIC ([8]; Proteus vulgaris) | MIC ([9]; Proteus vulgaris) | MIC [10] | MIC [11] | MIC [12] | MIC [13] | MIC [8, 14] | MIC [9, 15]
CC(C)(ON=C(C(=O)NC1C(=O)N2C(C(=O)O)=C(COC(=O)c3ccc(NC(=O)CCN)cc3)C[S+]([O-])C12)c1csc(N)n1)C(=O)O (centres unmarked) [42 546] | 0.25 mg/L (≈ 0.361 µM) | 0.125 mg/L (≈ 0.181 µM) | 0.25 mg/L (≈ 0.361 µM) | 4 mg/L (≈ 5.78 µM) | ≤ 0.0312 mg/L | 0.25 mg/L (≈ 0.361 µM) | ≤ 0.0312 mg/L | ≤ 0.0312 mg/L | ≤ 0.125 mg/L | 0.25 mg/L (≈ 0.361 µM) | 0.25 mg/L (≈ 0.361 µM) | 0.0625 mg/L (≈ 0.0904 µM) | 1 mg/L (≈ 1.45 µM) | – | –
Cc1ccc(CN)c(C)c1C(=O)OCC1=C(C(=O)O)N2C(=O)C(NC(=O)/C(=N\OC(C)(C)C(=O)O)c3csc(N)n3)C2[S+]([O-])C1 (centres unmarked) [42 457] | 0.25 mg/L (≈ 0.377 µM) | 0.0625 mg/L (≈ 0.0943 µM) | 0.25 mg/L (≈ 0.377 µM) | 8 mg/L (≈ 12.1 µM) | ≤ 0.0312 mg/L | 0.5 mg/L (≈ 0.754 µM) | 0.0625 mg/L (≈ 0.0943 µM) | ≤ 0.0312 mg/L | ≤ 0.125 mg/L | 0.0625 mg/L (≈ 0.0943 µM) | 0.25 mg/L (≈ 0.377 µM) | 0.125 mg/L (≈ 0.189 µM) | 0.5 mg/L (≈ 0.754 µM) | – | –
NCC(=O)Nc1nc(C(=O)OCC2=C(C(=O)O)N3C(=O)C(NC(=O)C(=NOC4(C(=O)O)CCC4)c4csc(N)n4)C3[S+]([O-])C2)cs1 (centres unmarked) [42 547] | 0.25 mg/L (≈ 0.359 µM) | 0.25 mg/L (≈ 0.359 µM) | 0.25 mg/L (≈ 0.359 µM) | 4 mg/L (≈ 5.74 µM) | ≤ 0.0312 mg/L | 0.5 mg/L (≈ 0.718 µM) | 0.125 mg/L (≈ 0.179 µM) | – | ≤ 0.125 mg/L | 2 mg/L (≈ 2.87 µM) | 0.5 mg/L (≈ 0.718 µM) | 0.125 mg/L (≈ 0.179 µM) | 0.5 mg/L (≈ 0.718 µM) | 0.0625 mg/L (≈ 0.0897 µM) | –
Cc1c(CN)cccc1C(=O)SCC1=C(C(=O)O)N2C(=O)C(NC(=O)C(=NOC(C)(C)C(=O)O)c3csc(N)n3)C2[S+]([O-])C1 (centres unmarked) [compound 42535] | 0.25 mg/L (≈ 0.376 µM) | 0.125 mg/L (≈ 0.188 µM) | 0.25 mg/L (≈ 0.376 µM) | 8 mg/L (≈ 12 µM) | ≤ 0.0312 mg/L | 0.5 mg/L (≈ 0.752 µM) | 0.125 mg/L (≈ 0.188 µM) | 0.0625 mg/L (≈ 0.094 µM) | ≤ 0.125 mg/L | 0.0625 mg/L (≈ 0.094 µM) | 0.5 mg/L (≈ 0.752 µM) | 0.125 mg/L (≈ 0.188 µM) | 1 mg/L (≈ 1.5 µM) | – | –
CC(C)(ON=C(C(=O)NC1C(=O)N2C(C(=O)O)=C(COC(=O)C3CCCNC3)C[S+]([O-])C12)c1csc(N)n1)C(=O)O (centres unmarked) [42 022] | 0.25 mg/L (≈ 0.408 µM) | ≤ 0.12 mg/L | 0.25 mg/L (≈ 0.408 µM) | 4 mg/L (≈ 6.53 µM) | 0.25 mg/L (≈ 0.408 µM) | 0.5 mg/L (≈ 0.816 µM) | ≤ 0.12 mg/L | – | – | ≤ 0.12 mg/L | 2 mg/L (≈ 3.26 µM) | 0.25 mg/L (≈ 0.408 µM) | 0.5 mg/L (≈ 0.816 µM) | ≤ 0.12 mg/L | ≤ 0.12 mg/L
CC(C)(O/N=C(\C(=O)NC1C(=O)N2C(C(=O)O)=C(COC(=O)c3csc(NC(=O)CN)n3)C[S+]([O-])C12)c1csc(N)n1)C(=O)O (centres unmarked) [42 466] | 0.5 mg/L (≈ 0.73 µM) | 0.0625 mg/L (≈ 0.0913 µM) | 0.25 mg/L (≈ 0.365 µM) | 4 mg/L (≈ 5.84 µM) | 0.125 mg/L (≈ 0.183 µM) | 0.5 mg/L (≈ 0.73 µM) | ≤ 0.0312 mg/L | ≤ 0.0312 mg/L | ≤ 0.125 mg/L | 1 mg/L (≈ 1.46 µM) | 0.5 mg/L (≈ 0.73 µM) | 0.125 mg/L (≈ 0.183 µM) | 2 mg/L (≈ 2.92 µM) | – | –
CNCc1ccc(C(=O)SCC2=C(C(=O)O)N3C(=O)C(NC(=O)C(=NOC(C)(C)C(=O)O)c4csc(N)n4)C3[S+]([O-])C2)cc1 (centres unmarked) [compound 42533] | 0.25 mg/L (≈ 0.376 µM) | 0.125 mg/L (≈ 0.188 µM) | 0.25 mg/L (≈ 0.376 µM) | 8 mg/L (≈ 12 µM) | 0.0625 mg/L (≈ 0.094 µM) | 0.5 mg/L (≈ 0.752 µM) | ≤ 0.0312 mg/L | 0.0625 mg/L (≈ 0.094 µM) | ≤ 0.125 mg/L | 0.125 mg/L (≈ 0.188 µM) | 0.5 mg/L (≈ 0.752 µM) | 0.125 mg/L (≈ 0.188 µM) | 1 mg/L (≈ 1.5 µM) | – | –
CC(C)(O/N=C(\C(=O)NC1C(=O)N2C(C(=O)O)=C(COC(=O)CCCCN)C[S+]([O-])C12)c1csc(N)n1)C(=O)O (centres unmarked) [41 967] | 0.25 mg/L (≈ 0.416 µM) | ≤ 0.12 mg/L | 0.5 mg/L (≈ 0.832 µM) | 4 mg/L (≈ 6.66 µM) | ≤ 0.12 mg/L | 0.25 mg/L (≈ 0.416 µM) | ≤ 0.12 mg/L | – | – | 0.25 mg/L (≈ 0.416 µM) | 2 mg/L (≈ 3.33 µM) | ≤ 0.12 mg/L | 0.5 mg/L (≈ 0.832 µM) | ≤ 0.12 mg/L | ≤ 0.12 mg/L
CC(C)(ON=C(C(=O)NC1C(=O)N2C(C(=O)O)=C(CSC(=O)c3cccc(CN)c3)C[S+]([O-])C12)c1csc(N)n1)C(=O)O (centres unmarked) [compound 42531] | 0.25 mg/L (≈ 0.384 µM) | – | 0.25 mg/L (≈ 0.384 µM) | 8 mg/L (≈ 12.3 µM) | 0.0625 mg/L (≈ 0.096 µM) | 0.5 mg/L (≈ 0.768 µM) | 0.0625 mg/L (≈ 0.096 µM) | 0.0625 mg/L (≈ 0.096 µM) | ≤ 0.125 mg/L | 0.125 mg/L (≈ 0.192 µM) | 0.5 mg/L (≈ 0.768 µM) | 0.125 mg/L (≈ 0.192 µM) | 0.5 mg/L (≈ 0.768 µM) | – | –
